Columns and labels:
[1] = system: VCAM in HUVEC cells; test: cell surface expression of VCAM in HUVEC; format: cell-based, human; details: human TNF-α 20 ng/ml, 20 hours; FIG. 11
Protocol: Drug inhibitory activity can also be measured by determining levels of vascular cell adhesion molecule (VCAM) in stimulated cells. Early passage human umbilical vein endothelial cells (HUVEC) (obtained from commercial suppliers such as Cell Systems, Inc. or Clonetics) are cultured in media (e.g., Hepes buffered media, Cell Systems) containing 10% fetal bovine serum, and supplemented with a stimulating agent, such as fibroblast growth factor (acidic FGF, Cell Systems, Inc.) or TNF. The cells are plated into wells of a microtiter plate (e.g., 5×10^4 per well) and allowed to incubate at 37° C. for 72 hrs. The resting cells are removed (e.g., 20-30 min treatment with 0.4% EDTA), washed in media (e.g., phosphate buffered saline plus 0.1% bovine serum albumin with 0.01% sodium azide) and labeled on ice with a monoclonal antibody ("first antibody") recognizing human VCAM (e.g., 1 μg of a murine monoclonal antibody recognizing human VCAM, Genzyme). After 60 min on ice, the cells are washed (preferably twice) with cold wash media and incubated with an antibody that recognizes the first antibody (e.g., 1 μg of goat anti-mouse IgG conjugated with phycoerythrin, CalTag, Inc.). After 30 min on ice, the cells are washed twice and analyzed on a flow cytometer (Coulter Elite®) at appropriate emission and excitation wavelengths (e.g., for phycoerytlrin use excitation at 488 nm and emission at 525 nm).
The cells were stimulated with human TNF-α (20 ng/ml) for 20 hours and then stained for immunofluorescence using a monoclonal antibody recognizing VCAM, followed by a goat anti-mouse antibody conjugated to phycoerythrin. The cells were analyzed for antibody binding using flow cytometry. […] 1521 and 1522 at the indicated drug concentrations.
This example was used to investigate inhibition of vascular cell adhesion molecule (VCAM) expression on HUVEC by inventive compound no. 2525. VCAM expression by endothelial cells is an early event in atherogenesis and multiple sclerosis, among other various autoimmune diseases. FIG. 17, a plot of percent surface expression versus concentration of compound no.

[2] = system: human stromal cells; test: proliferation of human stromal cells stimulated with PDGF; format: cell-based; details: 50 ng/ml PDGF-BB
Protocol: Another assay for measuring activity of the inventive compounds involves determining PDGF (platelet derived growth factor) proliferative response using human-derived stromal cells. Human stromal cells are plated (e.g., about 2000 cells per well) in defined media (e.g., 69% McCoy's, 12.5% fetal calf serum, 12.5% horse serum, 1% antibiotics, 1% glutamine, 1% vitamin supplement, 0.8% essential amino acids, 1% sodium pyruvate, 1% sodium bicarbonate, 0.4% non-essential amino acids and 0.36% hydrocortisone). Two to three days later, the stromal cells are starved in serum-free media. Twenty four hours later, the cells are treated with a stimulating agent, such as PDGF-AA, PDGF-BB or basic FGF (fibroblast growth factor) with or without IL-1α or TNF, and tritiated thymidine. Cell proliferation is determined by liquid scintillation counting.
This example illustrates the ability of inventive compounds nos. […] This assay is a model for restenosis and treatment of atherosclerosis and coronary artery disease. Stromal cells were starved in serum-free media for one day and then stimulated with 50 ng/ml PDGF-BB. The drugs were added at the indicated concentrations one hour prior to PDGF stimulation. Tritiated thymidine was added for one day at the time of PDGF stimulation and the cells were harvested and counted by liquid scintillation counting 24 hours later. […]

[3] = system: murine thymocyte; test: thymocyte proliferation stimulated by ConA and IL-1α; format: cell-based, murine (female Balb/C mice); details: ConA 0.25 μg/ml, IL-1α 12.5 ng/ml; drug 2 h prior
Protocol: A thymocyte costimulator assay is conducted to evaluate the inventive compounds to inhibit activation and proliferation of thymocytes caused by stimulation with Con A and interleukin-1 (IL-1), or […]. Thymuses are obtained from mice (e.g., female Balb/C mice) and the thymuses are removed and dissociated into culture media (e.g., RPMI 1640 without serum supplementation). The dissociated thymus tissue and cell suspension is transferred to centrifuge tubes and allowed to settle, washed with HBSS and resuspended in serum-supplemented culture media (e.g., RPMI 1640 with 10% fetal calf serum). Any contaminating red cells are lysed, and viable cells are resuspended and counted. Thymocytes are plated (e.g., 96-well plates at a density of 2×10^5 cells/well) and a stimulating agent, such as Con A, IL-1 (e.g., IL-1α) or IL-2 is added to the well. The cells are incubated for 4 days at 37° C. On the fourth day, the cells are pulsed with tritiated thymidine and cell proliferation determined. […]
1521 on inhibition of murine thymocyte proliferation stimulated by Concanavalin A (ConA) and interleukin-I alpha (IL-1α). Thymuses were obtained from normal, female Balb/C mice. The thymuses were dissociated and plated into 96-well plates at a density of 2×10^5 cells/well. […] The cells were harvested and incorporated tritiated thymidine was determined in a liquid scintillation counter. […]

Row | SMILES | inhibition of cell surface expression of VCAM [1] | inhibition of proliferation of stromal cells stimulated with PDGF [2] | inhibition of thymocyte proliferation, ConA + IL-1α [3]
1 | CC(CCCCn1c(=O)c2c(ncn2C)n(C)c1=O)=NO [Compound no. 1521] | inhibit cell surface expression of VCAM in HUVEC cells | strongly inhibit proliferation of human stromal cells | inhibited thymocyte proliferation in a dose-response manner
2 | CON=C(C)CCCCn1c(=O)c2c(ncn2C)n(C)c1=O [Compound no. 1522] | inhibit cell surface expression of VCAM in HUVEC cells | strongly inhibit proliferation of human stromal cells | inhibited thymocyte proliferation

From US5770595A, “Oxime substituted therapeutic compounds” (Cell Therapeutics, Inc., priority 1994, dated 1998)
